Source: publication PMC10709440, “High-throughput ligand profile characterization in novel cell lines expressing seven heterologous insect olfactory receptors for the detection of volatile plant biomarkers” (Scientific Reports, 2023)
Where two headings read alike, the source gives them in different places.

Target: T1, Drosophila OR85b (Drosophila melanogaster, UniProt Q9VHQ7)
T1 construct: expressed in transfected cells
T1 sequence (Q9VHQ7 1-390): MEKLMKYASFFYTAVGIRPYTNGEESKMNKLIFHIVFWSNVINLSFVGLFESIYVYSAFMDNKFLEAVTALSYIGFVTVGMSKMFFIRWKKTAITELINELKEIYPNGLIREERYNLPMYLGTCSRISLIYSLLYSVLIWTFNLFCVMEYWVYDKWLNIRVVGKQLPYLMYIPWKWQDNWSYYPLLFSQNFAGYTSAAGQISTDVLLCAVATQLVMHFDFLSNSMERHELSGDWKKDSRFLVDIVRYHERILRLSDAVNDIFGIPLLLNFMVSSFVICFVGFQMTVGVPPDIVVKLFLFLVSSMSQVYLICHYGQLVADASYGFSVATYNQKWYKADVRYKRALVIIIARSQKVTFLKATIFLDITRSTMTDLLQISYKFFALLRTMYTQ
T1 sequence (Q9VNB5 1-486 partner): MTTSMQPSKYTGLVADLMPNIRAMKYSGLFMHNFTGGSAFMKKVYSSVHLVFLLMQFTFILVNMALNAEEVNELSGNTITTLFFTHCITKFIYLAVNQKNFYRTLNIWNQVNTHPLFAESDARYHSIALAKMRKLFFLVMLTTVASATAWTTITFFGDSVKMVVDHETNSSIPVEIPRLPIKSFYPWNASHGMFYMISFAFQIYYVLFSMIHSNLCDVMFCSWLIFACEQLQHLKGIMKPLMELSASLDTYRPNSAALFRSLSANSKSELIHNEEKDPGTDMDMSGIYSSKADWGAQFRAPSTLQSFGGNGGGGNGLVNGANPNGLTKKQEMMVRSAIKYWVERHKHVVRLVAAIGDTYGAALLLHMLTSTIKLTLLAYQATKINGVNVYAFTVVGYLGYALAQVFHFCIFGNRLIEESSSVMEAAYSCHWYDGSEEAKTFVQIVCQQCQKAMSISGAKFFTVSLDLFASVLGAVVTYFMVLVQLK
Experiment: Calcium ion fluorescence (GCaMP6) assay, OR85b stable HEK293 cell line
Assay type: cell-based
Settings: for OR85b response (VUAA1-normalized) at 1 μM / OR85b response (VUAA1-normalized) at 10 μM / OR85b response (VUAA1-normalized) at 100 μM / Average response: OR85b cell line; for Average response: VUAA1-normalized response, mean of biological replicates
Protocol: These VUAA1 normalized ∆F values were used to compare the different receptors and ligands.
The concentration-dependent effect of the reference ligands on their cognate cell lines was examined in more detail. Twelve different ligand concentrations were measured on each cell line in an overall 0.01 μM to 100 μM concentration range with 5 repetitions with three technical replicates each time.
Twelve thousand to 18,000 cells were plated into each well of a black wall, transparent bottom 384-well microplate (Greiner) 48 h or 72 h before the measurements and were simultaneously treated with 1 μg/mL doxycycline. […] The plate has 24 columns, thus we could record responses in up to eight different cell lines in each plate. On the day of the experiment, the growth medium was replaced with 20 µL assay buffer/well (140 mM NaCl, 5 mM KCl, 2 mM CaCl2, 1 mM MgCl2, 5 mM HEPES-Na, 20 mM glucose, pH 7.3, 340 mOsm). […] Baseline fluorescence (F0) was recorded for 5 s, after which 7 µL VOC buffer (140 mM NaCl, 5 mM KCl, 2 mM CaCl2, 1 mM MgCl2, 5 mM HEPES-Na, 31 mM glucose, 0.1% DMSO, pH 7.3, 340 mOsm) was injected into each well in one row and the fluorescence response was recorded for an additional 30 s, at a rate of one read/sec. VOC solutions (VOC buffer with 4× concentration of the final measured VOC concentration, 9 µL/well was injected) were measured on the same wells in a second round with the same protocol. Each individual concentration of a specific VOC sample was recorded in three wells for the same cell line on the same microplate. The raw data were exported in xls file format, F0 and FMAX values, and the fluorescence intensity changes (∆F) were calculated in Excel (Microsoft) (Supplementary file Data summary.xlsx) using the following equation: ΔF=FMAX-F0/F0 (see also Fig. 1C). On each plate, we recorded the response of each cell line to 50 µM VUAA1. The average of these ∆F values of each cell line were used to calculate the VUAA1-normalized values for the rest of the plate, by dividing VOC response ∆F values by the average VUAA1 response ∆F value of the corresponding OR cell line. Each VOC-OR combination was measured three times as technical replicates. […] The average of these replicates were used as one ∆F and VUAA1-normalized ∆F in the following analysis.
In the next rows we tested the reference VOCs (or other VOCs known to activate the corresponding cell lines), in order to test if all cell lines are responsive. The remaining rows were used to test VOCs with unknown effect.
The recorded FMAX, F0, ∆F, VUAA1-normalized ∆F values, as well as the OR name, the name of the tested sample, and the final concentration for each well were copied into supplementary file Data summary.xlsx, that was used to summarize all the plates recorded. Here, the averages of the measurements were calculated for each receptor-VOC-concentration combination.

[1] = ligand concentration 1 (unit not given), 0.05 threshold, values below shown as 0
[2] = ligand concentration 10 (unit not given), 0.05 threshold, values below shown as 0
[3] = ligand concentration 100 (unit not given), 0.05 threshold, values below shown as 0
[4] = concentration 1, normalized fluorescence change, values below 0.05 threshold given as 0
[5] = concentration 10, normalized fluorescence change, values below 0.05 threshold given as 0
[6] = concentration 100, normalized fluorescence change, values below 0.05 threshold given as 0
[7] = HEK293, read-out: OR85b response (VUAA1-normalized response)
[8] = ligand concentration 1 (unit not given), threshold 0.05, below shown as 0
[9] = ligand concentration 10 (unit not given), threshold 0.05, below shown as 0
[10] = ligand concentration 100 (unit not given), threshold 0.05, below shown as 0
[11] = HEK293, read-out: OR85b Average response (VUAA1-normalized)

Molecule	Average response (cc. 1 µM)	Average response (cc. 10 µM)	Average response (cc. 100 µM)	DF norm AVERAGE OR85b [1]	DF norm AVERAGE OR85b [2]	DF norm AVERAGE OR85b [3]	DF norm AVERAGE OR85b [4]	DF norm AVERAGE OR85b [5]	DF norm AVERAGE OR85b [6]	further results
CCCCCCCCCCCCCC [tetradecane]	0.10	0.0844	0.04	0.0972	0.08442	0				OR85b response (VUAA1-normalized) at 1 μM (VOC concentration 1 μM): 0.10; OR85b response (VUAA1-normalized) at 10 μM (VOC concentration 10 μM): 0.0844; OR85b response (VUAA1-normalized) at 100 μM (VOC concentration 100 μM): 0.00
CC/C=C\CCO [Z3-hexenol]	0.0533	0.0426	0.00	0.05333	0	0				
(-)-alpha-cedrene	0.00	0.0466	0.0948				0	0	0.09481	OR85b response (VUAA1-normalized response) (VOC concentration 1 μM): 0.00; OR85b response (VUAA1-normalized response) (VOC concentration 10 μM): 0.00; OR85b response (VUAA1-normalized response) (VOC concentration 100 μM): 0.0948
COc1cccc(OC)c1 [1,3-dimethoxy benzene]	0.00	0.0268	0.0367				0	0	0	activation at 1 µM [7]: 0%; activation at 10 µM [7]: 0%; activation at 100 µM [7]: 0%
Cc1cccc(C)c1 [m-xylene]	0.023	0.00	0.09							OR85b response (VUAA1-normalized) at 1 μM (VOC concentration 1 μM): 0.00; OR85b response (VUAA1-normalized) at 10 μM (VOC concentration 10 μM): 0.00; OR85b response (VUAA1-normalized) at 100 μM (VOC concentration 100 μM): 0.09; DF norm AVERAGE OR85b [8]: 0; DF norm AVERAGE OR85b [9]: 0; DF norm AVERAGE OR85b [10]: 0.08801
CC/C=C\CCOC(C)=O [z3-hexenyl acetate]	0.15	0.00	0.00	0.1453	0	0				
C=C1CC[C@H]2O[C@]2(C)CC[C@@H]2[C@@H]1CC2(C)C [(-)-caryophyllene oxide]	0.00	0.00	0.036				0	0	0	activation at 1 µM [7]: 0%; activation at 10 µM [7]: 0%; activation at 100 µM [7]: 0%
CC/C=C/CCO [e3-hexenol]	0.00	0.00	0.0284							DF norm AVERAGE OR85b [8]: 0; DF norm AVERAGE OR85b [9]: 0; DF norm AVERAGE OR85b [10]: 0
Cc1ccc(C)c(C)c1 [1,2,4-trimethylbenzene]	0.0436	0.0741	0.12				0	0.0741	0.1212	activation at 1 µM [11]: 4%; activation at 10 µM [11]: 7%; activation at 100 µM [11]: 12%; activation at 1 µM [7]: 0%; activation at 10 µM [7]: 7.41%; activation at 100 µM [7]: 12%
C=C(C)C1CCC2(C)OC2C1 (single isomer, unassigned; (+)) [(+)-limonene oxide]	0.00	0.00	0.00				0	0	0	OR85b response (VUAA1-normalized response) (VOC concentration 1 μM): 0.00; OR85b response (VUAA1-normalized response) (VOC concentration 10 μM): 0.00; OR85b response (VUAA1-normalized response) (VOC concentration 100 μM): 0.00
CCCCCCCCCCC [undecane]	0.0284	0.05	0.11	0	0.05165	0.1131				activation at 1 µM [11]: 3%; activation at 10 µM [11]: 5%; activation at 100 µM [11]: 11%; OR85b response (VUAA1-normalized) at 1 μM (VOC concentration 1 μM): 0.00; OR85b response (VUAA1-normalized) at 10 μM (VOC concentration 10 μM): 0.05; OR85b response (VUAA1-normalized) at 100 μM (VOC concentration 100 μM): 0.11
C=C1[C@H]2CC[C@@H]3[C@H]2C(C)(C)CCC[C@]13C [(+)-longifolene]	0.08	0.11	0.05				0.0834	0.1092	0	OR85b response (VUAA1-normalized response) (VOC concentration 1 μM): 0.08; OR85b response (VUAA1-normalized response) (VOC concentration 10 μM): 0.11; OR85b response (VUAA1-normalized response) (VOC concentration 100 μM): 0.00
